Measurements as given in ChEMBL document CHEMBL5705899 (Biochem J, 2014).
The source made the active and inactive calls. The calls are words filed in the database; no cut-off is given here.

Assays:
[1] = biological target: Serine/threonine-protein kinase 3 (Homo sapiens) (UniProt Q13188); assay: Inhibition of recombinant human N-terminal GST-tagged MST2 (2 to 491 residues) expressed in baculovirus infected Sf21 cells assessed as remaining activity at 1 uM using MBP as substrate incubated for 30 mins in presence of [gamma-33P]ATP by filter binding method relative to control
Serine/threonine-protein kinase 3 (Homo sapiens), sequence (Q13188 whole entry, the tested form may be a part): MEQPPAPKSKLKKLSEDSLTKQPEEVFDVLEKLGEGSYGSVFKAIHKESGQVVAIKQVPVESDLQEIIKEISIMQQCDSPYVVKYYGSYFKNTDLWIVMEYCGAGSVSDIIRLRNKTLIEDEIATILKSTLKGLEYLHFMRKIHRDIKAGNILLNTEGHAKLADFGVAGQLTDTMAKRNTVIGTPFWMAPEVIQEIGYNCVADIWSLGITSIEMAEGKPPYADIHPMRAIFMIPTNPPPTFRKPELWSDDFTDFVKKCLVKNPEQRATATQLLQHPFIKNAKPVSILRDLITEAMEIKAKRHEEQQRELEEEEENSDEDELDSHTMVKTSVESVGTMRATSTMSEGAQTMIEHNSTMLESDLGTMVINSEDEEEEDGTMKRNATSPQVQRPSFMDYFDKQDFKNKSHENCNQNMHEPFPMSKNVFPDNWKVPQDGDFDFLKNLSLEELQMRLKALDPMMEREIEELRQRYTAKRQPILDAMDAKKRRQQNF

[2] = biological target: Mitogen-activated protein kinase 9 (Homo sapiens) (UniProt P45984); assay: Inhibition of recombinant human N-terminal His6-tagged JNK2 (1 to 424 residues) expressed in baculovirus infected Sf21 cells assessed as remaining activity at 1 uM using ATF2 as substrate incubated for 30 mins in presence of [gamma-33P]ATP by filter binding method relative to control
[3] = biological target: Dual specificity mitogen-activated protein kinase kinase 2 (Homo sapiens) (UniProt P36507); assay: Inhibition of recombinant human N-terminal GST/C-terminal His6-tagged MKK2 (2 to 400 residues) expressed in Escherichia coli assessed as remaining activity at 1 uM using MBP as substrate incubated for 30 mins in presence of [gamma-33P]ATP by filter binding method relative to control
Dual specificity mitogen-activated protein kinase kinase 2 (Homo sapiens), sequence (P36507 whole entry, the tested form may be a part): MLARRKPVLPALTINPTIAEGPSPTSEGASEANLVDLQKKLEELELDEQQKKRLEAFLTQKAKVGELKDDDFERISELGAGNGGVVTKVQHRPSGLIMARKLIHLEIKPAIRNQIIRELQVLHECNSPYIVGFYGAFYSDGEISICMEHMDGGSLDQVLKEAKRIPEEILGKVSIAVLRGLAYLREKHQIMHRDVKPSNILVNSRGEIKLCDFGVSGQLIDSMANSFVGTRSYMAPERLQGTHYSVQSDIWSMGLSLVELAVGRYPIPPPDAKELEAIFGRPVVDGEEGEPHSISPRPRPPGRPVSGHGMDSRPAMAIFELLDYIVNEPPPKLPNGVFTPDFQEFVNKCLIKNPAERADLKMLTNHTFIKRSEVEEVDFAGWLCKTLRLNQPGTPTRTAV

[4] = biological target: Discoidin domain-containing receptor 2 (Homo sapiens) (UniProt Q16832); assay: Inhibition of recombinant human N-terminal GST-tagged DDR2 (467 to 854 residues) expressed in baculovirus infected Sf21 cells assessed as remaining activity at 1 uM using KKSRGDYMTMQIG as substrate incubated for 30 mins in presence of [gamma-33P]ATP by filter binding method relative to control
[5] = biological target: Angiopoietin-1 receptor (Homo sapiens) (UniProt Q02763); assay: Inhibition of recombinant human N-terminal His6-tagged TIE2 (771 to 1124 residues) expressed in baculovirus infected Sf21 cells assessed as remaining activity at 1 uM using Poly(Glu,Tyr) as substrate incubated for 30 mins in presence of [gamma-33P]ATP by filter binding method relative to control
[6] = biological target: Tyrosine-protein kinase SYK (Homo sapiens) (UniProt P43405); assay: Inhibition of recombinant human N-terminal His6-tagged SYK (1 to 635 residues) expressed in baculovirus infected Sf21 cells assessed as remaining activity at 1 uM using Poly (Glu,Tyr) as substrate incubated for 30 mins in presence of [gamma-33P]ATP by filter binding method relative to control
[7] = biological target: Tyrosine-protein kinase Mer (Homo sapiens) (UniProt Q12866); assay: Inhibition of human MERTK at 1 uM using polyEY as substrate in presence of 33P-ATP by ProQinase assay
[8] = biological target: BDNF/NT-3 growth factors receptor (Homo sapiens) (UniProt Q16620); assay: Inhibition of human TRKB at 1 uM using polyEY as substrate in presence of 33P-ATP by ProQinase assay
[9] = biological target: Protein kinase C delta type (Homo sapiens) (UniProt Q05655); assay: Inhibition of human PKCdelta at 1 uM using 3xChocktide-PKC as substrate in presence of 33P-ATP by ProQinase assay
Protein kinase C delta type (Homo sapiens), sequence (Q05655 whole entry, looked up): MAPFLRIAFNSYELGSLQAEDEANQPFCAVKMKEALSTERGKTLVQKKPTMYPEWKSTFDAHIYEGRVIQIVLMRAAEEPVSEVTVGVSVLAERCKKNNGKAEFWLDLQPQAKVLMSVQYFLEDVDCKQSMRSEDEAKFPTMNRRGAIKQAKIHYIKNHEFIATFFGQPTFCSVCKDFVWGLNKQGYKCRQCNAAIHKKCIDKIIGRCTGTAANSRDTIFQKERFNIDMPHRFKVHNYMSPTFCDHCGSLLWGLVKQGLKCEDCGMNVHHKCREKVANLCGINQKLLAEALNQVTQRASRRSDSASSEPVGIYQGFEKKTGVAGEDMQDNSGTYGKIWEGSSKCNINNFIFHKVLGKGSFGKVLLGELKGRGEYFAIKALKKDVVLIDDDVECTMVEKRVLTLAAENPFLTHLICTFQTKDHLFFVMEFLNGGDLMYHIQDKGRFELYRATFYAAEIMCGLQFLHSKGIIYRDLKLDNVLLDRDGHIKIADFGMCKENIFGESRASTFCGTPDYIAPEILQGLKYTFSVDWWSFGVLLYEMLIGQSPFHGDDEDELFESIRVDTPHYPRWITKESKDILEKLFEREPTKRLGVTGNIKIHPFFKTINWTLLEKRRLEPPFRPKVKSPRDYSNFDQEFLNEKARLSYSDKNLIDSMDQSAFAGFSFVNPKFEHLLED

[10] = biological target: Ephrin type-A receptor 8 (Homo sapiens) (UniProt P29322); assay: Inhibition of human EPHA8 at 1 uM using polyEy as substrate in presence of 33P-ATP by ProQinase assay
[11] = biological target: Focal adhesion kinase 1 (Homo sapiens) (UniProt Q05397); assay: Inhibition of human FAK (2 to 1052 residues) at 1 uM using polyEY as substrate in presence of 33P-ATP by ProQinase assay
[12] = biological target: Proto-oncogene tyrosine-protein kinase ROS (Homo sapiens) (UniProt P08922); assay: Inhibition of human ROS at 1 uM using poly(Ala,Glu,Lys,Tyr) as substrate in presence of 33P-ATP by ProQinase assay
[13] = biological target: Dual specificity tyrosine-phosphorylation-regulated kinase 4 (Homo sapiens) (UniProt Q9NR20); assay: Inhibition of human DYRK4 at 1 uM using RBER-CHKtide as substrate in presence of 33P-ATP by ProQinase assay
[14] = biological target: Ribosomal protein S6 kinase beta-2 (Homo sapiens) (UniProt Q9UBS0); assay: Inhibition of human S6K-beta at 1 uM using RBER-CHKtide as substrate in presence of 33P-ATP by ProQinase assay
[15] = biological target: Serine/threonine-protein kinase MRCK beta (Homo sapiens) (UniProt Q9Y5S2); assay: Inhibition of human CDC42BPB at 1 uM using RB-S6P as substrate in presence of 33P-ATP by ProQinase assay
Serine/threonine-protein kinase MRCK beta (Homo sapiens), sequence (Q9Y5S2 whole entry): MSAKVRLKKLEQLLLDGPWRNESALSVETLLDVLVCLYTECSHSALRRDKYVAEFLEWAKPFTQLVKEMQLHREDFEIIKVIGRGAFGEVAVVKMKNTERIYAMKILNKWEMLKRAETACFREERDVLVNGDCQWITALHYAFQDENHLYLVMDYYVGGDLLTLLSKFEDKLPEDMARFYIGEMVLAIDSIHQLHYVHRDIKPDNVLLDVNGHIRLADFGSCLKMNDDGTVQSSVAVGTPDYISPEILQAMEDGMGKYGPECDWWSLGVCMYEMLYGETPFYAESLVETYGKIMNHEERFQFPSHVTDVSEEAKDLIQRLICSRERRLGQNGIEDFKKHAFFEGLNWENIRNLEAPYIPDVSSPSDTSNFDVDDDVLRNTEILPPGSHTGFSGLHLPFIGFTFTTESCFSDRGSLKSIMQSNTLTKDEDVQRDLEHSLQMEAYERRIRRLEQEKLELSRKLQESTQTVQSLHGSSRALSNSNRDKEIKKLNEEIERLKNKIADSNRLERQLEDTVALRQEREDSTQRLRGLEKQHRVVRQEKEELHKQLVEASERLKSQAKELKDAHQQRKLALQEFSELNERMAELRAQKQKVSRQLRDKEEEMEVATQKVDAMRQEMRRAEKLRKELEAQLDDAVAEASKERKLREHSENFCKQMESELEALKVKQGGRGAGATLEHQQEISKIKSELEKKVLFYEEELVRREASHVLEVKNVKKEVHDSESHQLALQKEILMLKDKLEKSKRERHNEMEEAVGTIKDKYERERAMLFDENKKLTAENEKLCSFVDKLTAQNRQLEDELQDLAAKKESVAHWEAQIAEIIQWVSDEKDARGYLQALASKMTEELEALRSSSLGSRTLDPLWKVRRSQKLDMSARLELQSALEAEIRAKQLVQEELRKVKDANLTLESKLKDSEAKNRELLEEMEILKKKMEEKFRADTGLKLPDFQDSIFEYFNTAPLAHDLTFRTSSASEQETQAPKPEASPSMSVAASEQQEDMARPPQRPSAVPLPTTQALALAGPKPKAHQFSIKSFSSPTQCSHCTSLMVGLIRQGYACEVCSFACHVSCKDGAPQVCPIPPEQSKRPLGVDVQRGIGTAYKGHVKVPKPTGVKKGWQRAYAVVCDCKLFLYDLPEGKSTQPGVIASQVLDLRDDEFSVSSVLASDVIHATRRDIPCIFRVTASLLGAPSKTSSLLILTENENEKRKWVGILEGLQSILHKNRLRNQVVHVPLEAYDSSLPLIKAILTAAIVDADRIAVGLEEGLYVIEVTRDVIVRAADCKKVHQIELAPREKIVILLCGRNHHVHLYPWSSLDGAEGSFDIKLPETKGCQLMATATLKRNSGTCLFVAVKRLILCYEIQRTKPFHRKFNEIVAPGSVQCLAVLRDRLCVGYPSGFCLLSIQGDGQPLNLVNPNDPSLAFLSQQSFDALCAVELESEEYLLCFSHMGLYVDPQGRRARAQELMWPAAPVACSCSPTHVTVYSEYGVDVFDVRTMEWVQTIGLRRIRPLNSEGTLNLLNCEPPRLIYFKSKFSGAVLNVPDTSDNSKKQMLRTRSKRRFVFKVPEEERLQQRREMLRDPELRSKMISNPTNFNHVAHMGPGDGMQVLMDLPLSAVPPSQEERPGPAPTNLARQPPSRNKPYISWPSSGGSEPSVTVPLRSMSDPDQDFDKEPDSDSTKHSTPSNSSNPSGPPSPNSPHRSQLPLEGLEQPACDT

[16] = biological target: Cyclin-dependent kinase 2/cyclin E1 (Homo sapiens) (UniProt P24864+P24941); assay: Inhibition of human CDK2/CycE1 at 1 uM using RBER-CHKtide as substrate in presence of 33P-ATP by ProQinase assay; assay type: protein-complex assay
[17] = biological target: CDK2/Cyclin A2 (Homo sapiens) (UniProt P24941+P20248); assay: Inhibition of human CDK2/CycA2 at 1 uM using RBER-CHKtide as substrate in presence of 33P-ATP by ProQinase assay; assay type: protein-complex assay
[18] = biological target: Myosin light chain kinase 2, skeletal/cardiac muscle (Homo sapiens) (UniProt Q9H1R3); assay: Inhibition of human MYLK2 at 1 uM using RB-S6P as substrate in presence of 33P-ATP by ProQinase assay
[19] = biological target: Cyclin-dependent kinase 1/cyclin B1 (Homo sapiens) (UniProt P06493+P14635); assay: Inhibition of human CDK1/CycB1 at 1 uM using RBER-CHKtide as substrate in presence of 33P-ATP by ProQinase assay; assay type: protein-complex assay
[20] = biological target: Calcium/calmodulin-dependent protein kinase type II subunit beta (Homo sapiens) (UniProt Q13554); assay: Inhibition of human CAMK2B at 1 uM using RBER-CHKtide as substrate in presence of 33P-ATP by ProQinase assay
Calcium/calmodulin-dependent protein kinase type II subunit beta (Homo sapiens), sequence (Q13554 whole entry): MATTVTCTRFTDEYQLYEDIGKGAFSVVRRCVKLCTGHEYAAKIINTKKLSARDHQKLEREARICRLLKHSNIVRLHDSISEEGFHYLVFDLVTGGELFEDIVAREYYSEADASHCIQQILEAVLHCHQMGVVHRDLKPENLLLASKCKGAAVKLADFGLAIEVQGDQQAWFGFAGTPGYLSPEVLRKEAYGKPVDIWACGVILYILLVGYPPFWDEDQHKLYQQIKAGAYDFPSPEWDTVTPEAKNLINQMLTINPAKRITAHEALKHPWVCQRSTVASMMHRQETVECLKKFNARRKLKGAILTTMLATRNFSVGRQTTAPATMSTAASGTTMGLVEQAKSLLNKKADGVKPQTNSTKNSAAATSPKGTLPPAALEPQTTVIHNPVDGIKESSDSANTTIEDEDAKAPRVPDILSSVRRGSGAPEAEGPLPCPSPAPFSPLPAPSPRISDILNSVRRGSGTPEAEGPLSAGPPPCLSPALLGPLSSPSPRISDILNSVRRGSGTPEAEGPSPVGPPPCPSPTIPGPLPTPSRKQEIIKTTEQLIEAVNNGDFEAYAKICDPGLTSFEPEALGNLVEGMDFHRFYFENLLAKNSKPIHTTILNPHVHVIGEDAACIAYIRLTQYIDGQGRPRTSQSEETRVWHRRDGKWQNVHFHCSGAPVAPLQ

Homo sapiens = organism: Homo sapiens; assay: Inhibition of human CDK1/CycA2 at 1 uM using RBER-CHKtide as substrate in presence of 33P-ATP by ProQinase assay
[21] = biological target: Mitogen-activated protein kinase 1 (Homo sapiens) (UniProt P28482); assay: Inhibition of human ERK2 at 1 uM using RBER-CHKtide as substrate in presence of 33P-ATP by ProQinase assay
[22] = biological target: Testis-specific serine/threonine-protein kinase 1 (Homo sapiens) (UniProt Q9BXA7); assay: Inhibition of human TSSK1 at 1 uM using RBER-CHKtide as substrate in presence of 33P-ATP by ProQinase assay
[23] = biological target: Diacylglycerol kinase alpha (Homo sapiens) (UniProt P23743); assay: Inhibition of DGKalpha (unknown origin) at 1 uM
[24] = biological target: Diacylglycerol kinase eta (Homo sapiens) (UniProt Q86XP1); assay: Inhibition of DGKeta (unknown origin) at 1 uM
[25] = biological target: Phosphatidylinositol 4,5-bisphosphate 3-kinase catalytic subunit gamma isoform (Homo sapiens, UniProt P48736); assay: Inhibition of recombinant human N-terminal His6-tagged PI3Kgamma (2 to 1102 residues) expressed in baculovirus expression system at 1 uM using diC8 PIP2 as substrate incubated for 75 mins by ADP-Glo assay
Phosphatidylinositol 4,5-bisphosphate 3-kinase catalytic subunit gamma isoform, sequence (P48736 whole entry, looked up, the tested form may be a part, canonical isoform): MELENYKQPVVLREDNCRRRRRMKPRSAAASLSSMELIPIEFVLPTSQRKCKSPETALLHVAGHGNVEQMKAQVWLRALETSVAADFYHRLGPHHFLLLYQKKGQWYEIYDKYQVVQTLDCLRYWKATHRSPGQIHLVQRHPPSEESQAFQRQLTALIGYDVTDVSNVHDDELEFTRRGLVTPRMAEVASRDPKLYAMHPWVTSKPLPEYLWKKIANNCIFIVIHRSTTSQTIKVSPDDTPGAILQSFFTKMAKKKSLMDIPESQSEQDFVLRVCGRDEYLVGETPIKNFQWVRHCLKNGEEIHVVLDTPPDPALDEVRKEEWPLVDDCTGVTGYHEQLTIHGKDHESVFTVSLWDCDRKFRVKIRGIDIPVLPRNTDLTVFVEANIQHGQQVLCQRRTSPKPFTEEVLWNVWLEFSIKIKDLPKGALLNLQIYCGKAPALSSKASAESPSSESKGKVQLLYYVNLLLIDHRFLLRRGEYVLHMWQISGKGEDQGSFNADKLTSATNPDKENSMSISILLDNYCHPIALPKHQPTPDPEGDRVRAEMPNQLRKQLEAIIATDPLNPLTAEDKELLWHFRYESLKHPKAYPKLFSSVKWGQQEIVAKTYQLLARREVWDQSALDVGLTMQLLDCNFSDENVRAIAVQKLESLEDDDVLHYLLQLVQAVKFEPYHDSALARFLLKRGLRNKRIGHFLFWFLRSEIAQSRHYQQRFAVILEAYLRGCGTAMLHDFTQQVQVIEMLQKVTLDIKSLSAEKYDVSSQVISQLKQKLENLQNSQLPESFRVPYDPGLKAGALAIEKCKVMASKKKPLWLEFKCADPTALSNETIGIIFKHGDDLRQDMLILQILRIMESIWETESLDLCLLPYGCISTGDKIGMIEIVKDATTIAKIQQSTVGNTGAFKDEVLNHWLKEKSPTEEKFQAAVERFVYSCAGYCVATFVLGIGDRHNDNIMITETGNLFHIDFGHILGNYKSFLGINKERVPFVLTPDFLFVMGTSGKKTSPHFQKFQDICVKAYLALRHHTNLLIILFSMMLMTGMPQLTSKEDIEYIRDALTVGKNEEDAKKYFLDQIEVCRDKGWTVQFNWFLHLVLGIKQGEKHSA

CC(C)(O)CNc1ncc(-c2ccnc(Nc3ccnc(Cl)c3)n2)c(CC2CC2)n1
Activity [1]: 120% | Activity [2]: 113% | Activity [3]: 111% | Activity [4]: 111% | Activity [5]: 93% | Activity [6]: 91% | inhibition [7]: inactive | inhibition [8]: inactive | inhibition [9]: inactive | inhibition [10]: inactive | inhibition [11]: inactive | inhibition [12]: inactive | inhibition [13]: inactive | inhibition [14]: inactive | inhibition [15]: inactive | inhibition [16]: inactive | inhibition [17]: inactive | inhibition [18]: inactive | inhibition [19]: inactive | inhibition [20]: inactive | inhibition (Homo sapiens): inactive | inhibition [21]: inactive | inhibition [22]: inactive | inhibition [23]: inactive | inhibition [24]: inactive | inhibition [25]: inactive
